pIC50: −log10 of the molar value.
The molecules below were run against Protein kinase C alpha type (Homo sapiens, UniProt P17252) (assay: Inhibition of human recombinant PKCalpha).

Question: OC[C@H]1O[C@@H](O[C@H](CCCCc2ccc(O)c(O)c2)CCc2ccc(O)c(O)c2)[C@H](O)[C@@H](O)[C@@H]1O was tested. Which pIC50 did it give?
Answer: 5.55

Question: With Oc1ccc(CCCC[C@@H](O)CCc2ccc(O)c(O)c2)cc1O as the molecule, how does the pIC50 read?
Answer: 5.32

Question: With O=C(/C=C/CCc1ccc(O)c(O)c1)CCc1ccc(O)c(O)c1 [DEHYDROHIRSUTANONOL] as the molecule, how does the pIC50 read?
Answer: 5.37

Question: How did the pIC50 turn out when O=C(CCc1ccc(O)c(O)c1)C[C@@H](O)CCc1ccc(O)c(O)c1 [HIRSUTANONOL] was run?
Answer: 4.88

Question: How did the pIC50 turn out when O=C(CCc1ccc(O)c(O)c1)C[C@H](CCc1ccc(O)c(O)c1)O[C@@H]1OC[C@@H](O)[C@H](O)[C@H]1O [OREGONIN] was run?
Answer: 4.75
